We go through 24 compounds from US20060111416A1, “Octahydropyrrolo[3,4-C]pyrrole derivatives” (priority 2004, published 2006).

Structures are written as SMILES.

The target of this assay is T1, histamine H4 receptor (Homo sapiens, UniProt Q9H3N8).
T1 construct: expressed in transfected cells; host or cells: CHO cells (membranes)
T1 sequence (Q9H3N8 whole entry): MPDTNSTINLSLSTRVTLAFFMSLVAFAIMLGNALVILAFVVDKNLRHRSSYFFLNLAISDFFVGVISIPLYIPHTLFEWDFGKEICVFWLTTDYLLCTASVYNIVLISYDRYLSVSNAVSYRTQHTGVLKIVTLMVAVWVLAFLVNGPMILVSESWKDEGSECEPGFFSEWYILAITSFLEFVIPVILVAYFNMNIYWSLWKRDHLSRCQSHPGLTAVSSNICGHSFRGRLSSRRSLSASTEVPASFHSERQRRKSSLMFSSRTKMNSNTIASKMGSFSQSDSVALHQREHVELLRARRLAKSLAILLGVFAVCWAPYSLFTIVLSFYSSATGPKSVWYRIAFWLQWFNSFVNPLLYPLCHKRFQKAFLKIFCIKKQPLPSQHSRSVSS
The assay is described as follows: H4 binding ([3H]-Histamine competition binding on CHO cell membranes). Particulars: [3H]-Histamine 3 nM, membranes of CHO cells expressing the histamine H4 receptor; Ki calculated from IC50 by Cheng-Prussoff. How it is done: Cell pellets from CHO cells expressing the histamine H4 receptor were homogenised in ice-cold 50 mM Tris-HCl/0.5 mM CaCl2 buffer containing a protease inhibitor cocktail (Roche®, United Kingdom) using a ground glass homogeniser. Homogenates were centrifuged at 48000 g for 30 min at 4° C. The membrane pellet was resuspended in fresh buffer and the centrifugation step was repeated as described above. The membrane pellet was resuspended in 50 mM Tris-HCl in the same volume as the original cell pellet.
The reaction was terminated by rapid filtration through 0.5% polyethylenimine-soaked Unifilter GF/B plates (Packard) followed by three washes with 1 ml ice-cold 50 mM Tris-HCl. Filters were dried for 45 min at 45° C. and bound radiolabel was determined using scintillation counting techniques. Non-specific binding was defined with 5 μM clobenpropit.
Broadly, the Ki is a dissociation constant, usually derived from enzyme kinetics or from competition with a known ligand. In the case of `Cc1cccc2nc(C(=O)N3C[C@H]4CN(C)C[C@H]4C3)[nH]c12` [Example 26, 7-Methyl-2-{[(3aR,6aS)-5-methylhexahydropyrrolo[3,4-c]pyrrol-2(1H)-yl]carbonyl}-1H-benzimidazole], the Ki is 110 nM.
In the case of `CN1C[C@@H]2CN(C(=O)c3nc4cc(F)c(F)cc4[nH]3)C[C@@H]2C1` [Example 27, 5,6-Difluoro-2-{[(3aR,6aS)-5-methylhexahydropyrrolo[3,4-c]pyrrol-2(1H)-yl]carbonyl}-1H-benzimidazole], the Ki is 117 nM.
Turning to `Cc1c(F)ccc2nc(C(=N)N3C[C@H]4CN(C)C[C@H]4C3)[nH]c12` [Example 64, 1-(6-Fluoro-7-methyl-1H-benzimidazol-2-yl)-1-[(3aR, 6aS)-5-methylhexahydropyrrolo[3,4-c]pyrrol-2(1H)-yl]methanimine], the Ki was 4 nM.
As to `CN1C[C@@H]2CN(C(=N)c3nc4cc(F)cc(F)c4[nH]3)C[C@@H]2C1` [Example 63, 1-(4,6-Difluoro-1H-benzimidazol-2-yl)-1-[(3aR, 6aS)-5-methylhexahydropyrrolo[3,4-c]pyrrol-2(1H)-yl]methanimine], the Ki was 47 nM.
Take `CN1C[C@@H]2CN(C(=N)c3nc4cc(Cl)ccc4[nH]3)C[C@@H]2C1` [Example 68, 1-(5-Chloro-1H-benzimidazol-2-yl)-1-[(3aR, 6aS)-5-methylhexahydropyrrolo[3,4-c]pyrrol-2(1H)-yl]methanimine]: the Ki was 26 nM.
On to `Cc1c(F)ccc2nc(C(=O)N3C[C@H]4CN(C)C[C@H]4C3)[nH]c12` [Example 41, 5-fluoro-4-methyl-2-{[(3aR,6aS)-5-methylhexahydropyrrolo [3,4-c]pyrrol-2(1H)-yl]carbonyl}-1H-benzimidazole], for which the Ki is 53 nM.
As for `CN1C[C@@H]2CN(C(=O)c3nc4cc(F)ccc4[nH]3)C[C@@H]2C1` [Example 3, 5-Fluoro-2-{[(3aR,6aS)-5-methylhexahydropyrrolo[3,4-c]pyrrol-2(1H)-yl]carbonyl}-1H-benzimidazole], the Ki is 82 nM.
As to `Cc1c(Cl)ccc2[nH]c(C(=O)N3C[C@H]4CN(C)C[C@H]4C3)nc12` [Example 48, 5-Chloro-4-methyl-2-{[(3aR,6aS)-5-methylhexahydropyrrolo[3,4-c]pyrrol-2(1H)-yl]carbonyl}-1H-benzimidazole], the Ki is 91 nM.
As for `Cc1cccc2nc(C(=N)N3C[C@H]4CN(C)C[C@H]4C3)[nH]c12` [Example 62, 1-(4-Methyl-1H-benzimidazol-2-yl)-1-[(3aR, 6aS)-5-methylhexahydropyrrolo[3,4-c]pyrrol-2(1H)-yl]methanimine], the Ki was 7 nM.
Take `CN1C[C@@H]2CN(C(=O)c3cc4cccc(F)c4[nH]3)C[C@@H]2C1` [Example 22, 7-Fluoro-2-{[(3aR,6aS)-5-methylhexahydropyrrolo[3,4-c]pyrrol-2(1H)-yl]carbonyl}-1H-indole]: the Ki was 20 nM.
Turning to `CN1C[C@@H]2CN(C(=N)c3nc4c(F)c(F)c(F)cc4[nH]3)C[C@@H]2C1` [Example 67, 1-[(3aR, 6aS)-5-Methylhexahydropyrrolo[3,4-c]pyrrol-2(1H)-yl]-1-(4,5,6-trifluoro-1H-benzimidazol-2-yl)methanimine], the Ki is 60 nM.
To `CN1C[C@@H]2CN(C(=N)c3nc4cccc(F)c4[nH]3)C[C@@H]2C1` [Example 66, 1-(7-Fluoro-1H-benzimidazol-2-yl)-1-[(3aR, 6aS)-5-methylhexahydropyrrolo[3,4-c]pyrrol-2(1H)-yl]methanimine] belongs 24 nM.
As for `CN1C[C@@H]2CN(C(=N)c3nc4c(F)c(F)ccc4[nH]3)C[C@@H]2C1` [Example 61, 1-(4,5-Difluoro-1H-benzimidazol-2-yl)-1-[(3aR, 6aS)-5-methylhexahydropyrrolo[3,4-c]pyrrol-2(1H)-yl]methanimine], the Ki was 24 nM.
On to `Cc1c(Cl)ccc2nc(C(=N)N3C[C@H]4CN(C)C[C@H]4C3)[nH]c12` [Example 65, 1-(6-Chloro-7-methyl-1H-benzimidazol-2-yl)-1-[(3aR, 6aS)-5-methylhexahydropyrrolo[3,4-c]pyrrol-2(1H)-yl]methanimine], for which the Ki was 12 nM.
As to `CN1C[C@@H]2CN(C(=O)c3nc4c(F)c(F)c(F)cc4[nH]3)C[C@@H]2C1` [Example 58, 4,5,6-Trifluoro-2-{[(3aR,6aS)-5-methylhexahydropyrrolo [3,4-c]pyrrol-2(1H)-yl]carbonyl}-1H-benzimidazole], the Ki is 100 nM.
Consider `CN1C[C@@H]2CN(C(=O)c3cc4cc(Cl)ccc4[nH]3)C[C@@H]2C1` [Example 7, 5-Chloro-2-{[(3aR,6aS)-5-methylhexahydropyrrolo[3,4-c]pyrrol-2(1H)-yl]carbonyl}-1H-indole], for which the Ki is 16 nM.
Turning to `CN1C[C@@H]2CN(C(=O)c3nc4ccc(F)c(F)c4[nH]3)C[C@@H]2C1` [Example 25, 6,7-Difluoro-2-{[(3aR,6aS)-5-methylhexahydropyrrolo[3,4-c]pyrrol-2(1H)-yl]carbonyl}-1H-benzimidazole], the Ki was 67 nM.
Regarding `CN1C[C@@H]2CN(C(=O)c3cc4cc(O)ccc4[nH]3)C[C@@H]2C1` [Example 15, 2-{[(3aR,6aS)-5-Methylhexahydropyrrolo[3,4-c]pyrrol-2(1H)-yl]carbonyl}-1H-indol-5-ol], the Ki is 28 nM.
Turning to `CN1C[C@@H]2CN(C(=O)c3nc4ccccc4[nH]3)C[C@@H]2C1` [Example 1, 2-{[(3aR,6aS)5-Methylhexahydropyrrolo[3,4-c]pyrrol-2(1H)-yl]carbonyl}-1H-benzimidazole], the Ki is 91 nM.
`CN1C[C@@H]2CN(C(=N)c3nc4cc(F)ccc4[nH]3)C[C@@H]2C1` [Example 60, 1-(5-Fluoro-1H-benzimidazol-2-yl)-1-[(3aR,6aS)-5-methylhexahydropyrrolo[3,4-c]pyrrol-2(1H)-yl]methanimine]: the Ki is 6 nM.
With `CN1C[C@@H]2CN(C(=O)c3cc4cc(Br)ccc4[nH]3)C[C@@H]2C1` [Example 21, 5-Bromo-2-{[(3aR,6aS)-5-methylhexahydropyrrolo[3,4-c]pyrrol-2(1H)-yl]carbonyl}-1H-indole], the Ki is 43 nM.
As for `CN1C[C@@H]2CN(C(=N)c3nc4cc(F)c(F)cc4[nH]3)C[C@@H]2C1` [Example 59, 1-(5,6-Difluoro-1H-benzimidazol-2-yl)-1-[(3aR,6aS)-5-methylhexahydropyrrolo[3,4-c]pyrrol-2(1H)-yl]methanimine], the Ki is 7 nM.
To `Cc1ccc2[nH]c(C(=O)N3C[C@H]4CN(C)C[C@H]4C3)cc2c1` [Example 17, 5-Methyl-2-{[(3aR,6aS)-5-methylhexahydropyrrolo[3,4-c]pyrrol-2(1H)-yl]carbonyl}-1H-indole] belongs 84 nM; to `CN1C[C@@H]2CN(C(=O)c3cc4cc(F)ccc4[nH]3)C[C@@H]2C1` [Example 16, 5-Fluoro-2-{[(3aR,6aS)-5-methylhexahydropyrrolo[3,4-c]pyrrol-2(1H)-yl]carbonyl}-1H-indole], 20 nM.
